{"source": "patent US20220105108A1", "about": "“PERIVASCULAR ANTI-INFLAMMATORY THERAPY FOR VENOUS THROMBOSIS” (Mercator MedSystems, Inc., priority 2020, published 2022)", "key": {"[1]": {"test": "DANCE-Pilot study and DANCE trial: adventitial dexamethasone after femoropopliteal revascularization", "type": "in vivo, human", "conditions": "for transient hyperglycemia event: controlled with insulin; for Rate of CD-TLR: 12 months", "from_the_text": "Provided herein are examples of in vivo human clinical trials using the Bullfrog Micro-Infusion Device for local delivery of dexamethasone. The Bullfrog Micro-Infusion Device was successfully used in the DANCE (Dexamethasone to the Adventitia to Enhance Clinical Efficacy After Femoropopliteal Revascularization)-Pilot study and the DANCE trial in superficial femoral and popliteal arteries.\nIn the DANCE-Pilot study, 20 subjects were enrolled and treated with the Bullfrog device delivery of dexamethasone sodium phosphate. In the DANCE trial, 283 limbs were enrolled and treated with the Bullfrog device delivery of dexamethasone sodium phosphate. In 3.3% of the subjects enrolled in DANCE, there was no detected contrast medium distribution in the adventitia and perivascular tissues. In one subject in DANCE-Pilot and one subject in DANCE, there was a transient hyperglycemia event reported, which was treated and controlled with insulin therapy. There were no other unexpected adverse device events or suspected unexpected severe adverse reactions reported in the study.\nThe single-arm DANCE (Dexamethasone to the Adventitia to Enhance Clinical Efficacy After Femoropopliteal Revascularization) trial enrolled 262 subjects (283 limbs) with symptomatic peripheral artery disease (Rutherford category 2 to 4) receiving percutaneous transluminal angioplasty (PTA) (n=124) or atherectomy (ATX) (n=159) in femoropopliteal lesions <15 cm in length. A mixture of dexamethasone/contrast medium (80%/20%) was delivered to the adventitia and perivascular tissues surrounding target lesions in all subjects. Thirty-day assessments included major adverse limb events (MALE) and post-operative death. Twelve-month assessments included primary patency, freedom from clinically driven target lesion revascularization (CD-TLR), Rutherford scoring, and walking impairment questionnaire. […] In the secondary analysis, both the ATX and PTA DANCE groups were noninferior to the 72.3% contemporary performance goal, whether examining the PP (P<0.001 and P<0.004, respectively) or ITT (P<0.002 and P<0.005, respectively) population."}, "[2]": {"conditions": "10 mg equivalent dexamethasone phosphate in 3 ml, after angioplasty, 14 days", "description": "A first study was designed to compare a high dose of dexamethasone (10 mg equivalent dose of dexamethasone phosphate) delivered in 3 ml volume to the perivascular tissue of porcine AV grafts (6 mm ringed PTFE) implanted between femoral artery and femoral vein pairs, bilaterally. Fourteen days after graft implantation, percutaneous transluminal angioplasty (PTA) was performed (7 mm balloon, 16 atmosphere inflation pressure) at two sites per graft: across the graft-vein anastomosis (GVA) and in the proximal vein (PV). Perivascular infusion of either dexamethasone (6 grafts) or placebo (2 grafts) was administered following the PTA procedure. Infusions of 3m1 were always consistent between the 2 grafts in each animal. Animals were euthanized 14 days after the treatment procedure and the graft-vein anastomosis and proximal vein were analyzed by histopathology and histomorphometry to determine adverse effects from the high dose of dexamethasone. The study was not powered to identify differences in stenosis but rather was aimed at determining dexamethasone local toxicity."}, "[3]": {"conditions": "in vivo", "description": "(§1) A second study was designed to assess the local toxicity of dexamethasone administered via the Bullfrog Micro-Infusion Device in a swine model. The following objectives were met in the study: In each of four subjects, confirmation of the safety of up to 16 mg dexamethasone delivered to the adventitia and perivascular tissue of each of 4 peripheral arteries and 6.4 mg dexamethasone delivered to the adventitia and perivascular tissue of each of 3 coronary arteries (at 3.2 mg/mL with 20% contrast), as compared to normal untreated tissue in two untreated subjects by clinical pathology and histopathology examination, at 28±3 days."}, "P-selectin": {"test_system": "P-selectin", "conditions": "cited from earlier work"}, "vWF": {"test_system": "vWF", "conditions": "at 24 hours and 48 hours with dexamethasone treatment; cited from earlier work"}, "[4]": {"test": "Local toxicity of dexamethasone administered via Bullfrog device to peripheral and coronary arteries in swine", "conditions": "28±3 days", "description": "as §1"}}, "note": "Read-outs that look alike come from different tables or passages of the source."}
{"smiles": "C[C@@H]1C[C@H]2[C@@H]3CCC4=CC(=O)C=C[C@]4(C)[C@@]3(F)[C@@H](O)C[C@]2(C)[C@@]1(O)C(=O)COP(=O)(O)O", "note": "[dexamethasone sodium phosphate]", "values": [{"measurement": "other unexpected adverse device events or suspected unexpected severe adverse reactions", "setting": "[1]; DANCE-Pilot and DANCE", "result": "no other"}, {"measurement": "transient hyperglycemia event", "setting": "[1]; DANCE-Pilot, 20 subjects", "result": "one subject"}, {"measurement": "transient hyperglycemia event", "setting": "[1]; DANCE", "result": "one subject"}]}
{"smiles": "C[C@@H]1C[C@H]2[C@@H]3CCC4=CC(=O)C=C[C@]4(C)[C@@]3(F)[C@@H](O)C[C@]2(C)[C@@]1(O)C(=O)CO", "note": "[dexamethasone, 9-fluoro-11(beta),17,21-trihydroxy-16(alpha)-methylpregna-1,4-diene-3,20-dione]", "values": [{"measurement": "30-day MALE+post-operative death events", "setting": "[1]; DANCE trial", "result": "no 30-day MALE+post-operative death events"}, {"measurement": "Rate of CD-TLR", "setting": "[1]; DANCE-ATX, ITT", "result": 13.1, "unit": "%"}, {"measurement": "primary patency rate at 12 months", "setting": "[1]; DANCE-ATX, intent-to-treat", "result": 74.8, "unit": "%"}, {"measurement": "primary patency rate at 12 months", "setting": "[1]; DANCE-ATX, per-protocol", "result": 78.4, "unit": "%"}, {"measurement": "Rate of CD-TLR", "setting": "[1]; DANCE-ATX, per-protocol", "result": 10.0, "unit": "%"}, {"measurement": "Rate of CD-TLR", "setting": "[1]; DANCE-PTA, ITT", "result": 13.7, "unit": "%"}, {"measurement": "primary patency rate at 12 months", "setting": "[1]; DANCE-PTA, intent-to-treat", "result": 74.3, "unit": "%"}, {"measurement": "primary patency rate at 12 months", "setting": "[1]; DANCE-PTA, per-protocol", "result": 75.5, "unit": "%"}, {"measurement": "Rate of CD-TLR", "setting": "[1]; DANCE-PTA, per-protocol", "result": 11.0, "unit": "%"}, {"measurement": "dose-limiting toxicity", "setting": "[1]; in vivo", "result": "No dose-limiting toxicity"}, {"measurement": "histopathology findings of femoral GVA vs perivascular placebo", "setting": "[2]", "result": "no differences"}, {"measurement": "adverse or toxicologically meaningful changes in the treated vessels", "setting": "[3]", "result": "no adverse or toxicologically meaningful changes"}, {"measurement": "P-selectin, time of elevation", "setting": "P-selectin; dexamethasone treatment", "result": 48, "unit": "h"}, {"measurement": "P-selectin levels", "setting": "P-selectin; high dose 1 mg/kg bid×2 days, healthy males", "result": "induced elevated P-selectin levels"}, {"measurement": "P-selectin levels", "setting": "P-selectin; low dose 0.04 mg/kg bid×2 days", "result": "did not induce elevated P-selectin levels"}, {"measurement": "vWF", "setting": "vWF", "result": "elevated"}, {"measurement": "gross necropsy, injury to the treatment areas", "setting": "[4]", "result": "no evidence of injury"}, {"measurement": "local toxicity to the treated vessels (microscopic evaluation)", "setting": "[4]", "result": "no evidence of local toxicity"}, {"measurement": "local vascular irritation upon injection", "setting": "[4]", "result": "no evidence of local vascular irritation"}, {"measurement": "peripheral organs abnormalities associated with test article", "setting": "[4]", "result": "did not reveal any abnormalities"}, {"measurement": "thrombosis or stenosis of treated vessels", "setting": "[4]", "result": "no evidence of thrombosis or stenosis"}, {"measurement": "adverse postoperative events leading to early death", "setting": "[4]; up to 83.2 mg per subject", "result": "None of the animals"}]}
